Assay in all cases: growth of human tumour cells (NCI), 48 h
The subject of assay [1] is COLO 205 colon.
Assay [2] relates to HCT-15 colon.
Assay [3] concerns UACC-257 melanoma.
Assay [4] concerns A498 renal.
Assay [5] has as its system OVCAR-5 ovarian.
Assay [6] has as its system CCRF-CEM leukemia.
The subject of assay [7] is SW-620 colon.
Assay [8] concerns HCT-116 colon.
The subject of assay [9] is KM12 colon.
Assay [10] relates to MDA-MB-435.

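96-well plates; 48 h exposure; 5 concentrations. Endpoints by linear interpolation between flanking doses. Not reached: highest tested concentration assigned. GI50 is the concentration that inhibits growth by half. TGI denotes the concentration required for complete inhibition of growth.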

Turning to `COC1=C(C)C(=O)c2c(c(CCCl)c3n2CCC3O)C1=O` (stereo not given), the GI50 is 203 nM in assay [1]; 220 nM in assay [2]; 839 nM in [3]; 145 nM in assay [4]; 411 nM in assay [5]; 4.6 µM in assay [6]. The GI50 in assay [7] was 1090 nM; in [8], 1530 nM; in assay [9], 1370 nM; in assay [10] it was 1240 nM. The TGI is 0.72 µM in [1]; 4.4 µM in assay [2]; 3.45 µM in assay [3]; 0.313 µM in assay [4]; 7.72 µM in [5]; greater than 72.2 µM in assay [6]. Also, the TGI in assay [7] was 15.8 µM; in assay [8], greater than 100 µM; in assay [9], 6.73 µM; in [10], 2.79 µM.
With `CCC(c1ccc(OC)cc1)C(CC)c1ccc(O)c(CN2CCN(C)CC2)c1` (stereo not given), the GI50 was 1730 nM in [1]; 2660 nM in assay [2]; 2100 nM in [3]; 4130 nM in assay [4]; 14700 nM in assay [5]; 5.37 µM in assay [6]. Moreover, the GI50 in assay [7] is 3150 nM; in assay [8], 3460 nM; in assay [9] it was 3680 nM; in assay [10], 2720 nM. Moreover, the TGI worked out at 3.42 µM in assay [1]; 7.67 µM in assay [2]; 4.97 µM in assay [3]; 16.1 µM in assay [4]; 29.3 µM in assay [5]; 20.4 µM in assay [6]. For the same compound, the TGI in assay [7] amounted to 10 µM; in assay [8], 14.5 µM; in [9] it was 12 µM; in assay [10], 9.4 µM.
Regarding `COc1ccc(S(=O)(=O)NC2=NCCN2C(=S)SN2CCn3c2nsc3=S)cc1`, the GI50 in assay [1] was 11000 nM; in [2] it was 20800 nM; in [3], 16800 nM; in assay [4] it was 19900 nM; in assay [5], 17300 nM; in [6], 7.95 µM. In addition, the GI50 in assay [7] is 14100 nM; in [8], 14400 nM; in assay [9] it was 18700 nM; in assay [10], 14800 nM. Also, the TGI was found to be 27.4 µM in assay [1]; 58.9 µM in [2]; 50.2 µM in assay [3]; 51.1 µM in assay [4]; 33.3 µM in assay [5]; 32.4 µM in assay [6]. Besides, the TGI in [7] came to 27.8 µM; in assay [8], 27.9 µM; in assay [9] it was 37.7 µM; in assay [10], 43.9 µM.
In the case of `CC(=O)OC1=CC2=CC[C@H]3[C@@H]4CCC(=O)[C@@]4(C)CC(=O)[C@]3(S)[C@@]2(C)CC1`, the TGI is greater than 100 µM in assay [1]; greater than 100 µM in [2]; 79.6 µM in assay [3]; greater than 100 µM in assay [4]; greater than 100 µM in assay [5]; greater than 100 µM in assay [6]. The TGI in assay [7] was greater than 100 µM; in assay [8], 49.3 µM; in [9] it was greater than 100 µM; in assay [10], greater than 100 µM.
Take `CC(C)(C)c1ccc(OC(=O)Nc2ccc(O)c(C(=O)O)c2)cc1`: the TGI in assay [1], in assay [2], in assay [3], in assay [4], in [5] and in assay [6] was greater than 100 µM throughout. Further, the TGI in assay [7], in assay [8], in assay [9] and in [10] was greater than 100 µM each time.
On to `Cn1nc(-c2ccc(Cl)cc2)nc2c(=O)n(C)c(=O)nc1-2`, for which the GI50 is 491 nM in [1]; 766 nM in assay [2]; 794 nM in assay [3]; 949 nM in assay [4]; 949 nM in assay [5]; 1.49 µM in [6]. Also, the GI50 in assay [7] was 1400 nM; in [8], 320 nM; in [9], 1350 nM; in assay [10] it was 137 nM. In addition, the TGI turned out to be 1.93 µM in assay [1]; 1.53 µM in assay [2]; 1.54 µM in [3]; 2.24 µM in assay [4]; 1.77 µM in assay [5]; 50 µM in [6]. Further, the TGI was 6.46 µM in assay [7], 1.44 µM in assay [8], 5.5 µM in [9] and 0.405 µM in assay [10].
As for `O=C(O)c1cn(C2CC2)c2cc(N3CCN(C(=O)Nc4nc(-c5ccccc5)cs4)CC3)c(F)cc2c1=O`, the GI50 in [1] is 2840 nM; in assay [2] it was 2270 nM; in [3], 2370 nM; in assay [4], 1060 nM; in assay [5], 2360 nM; in [6], 0.752 µM. The GI50 in assay [7] is 3200 nM; in assay [8], 647 nM; in assay [9], 485 nM; in assay [10] it was 1160 nM. The TGI in assay [1] is 9.63 µM; in assay [2], greater than 100 µM; in assay [3], 7.58 µM; in [4], 7.08 µM; in assay [5], greater than 100 µM; in assay [6] it was greater than 100 µM. For the same compound, the TGI in assay [7] was greater than 100 µM; in assay [8], greater than 100 µM; in assay [9] it was 23.7 µM; in assay [10], greater than 100 µM.
On to `Cc1cc2cc3ccc(N(C)C)cc3nc2cc1N`, for which the GI50 in assay [1] is 389 nM; in assay [2], 1400 nM; in assay [3] it was 1120 nM; in [4], 433 nM; in [5], 1260 nM; in [6], 0.772 µM. Also, the GI50 was 334 nM in assay [7], 279 nM in assay [8], 439 nM in assay [9] and 703 nM in assay [10]. The TGI in assay [1] is 2.01 µM; in [2], 17.8 µM; in assay [3], 3.04 µM; in assay [4], 2.05 µM; in assay [5], 6.55 µM; in [6], 10.7 µM. Further, the TGI in assay [7] was 1.92 µM; in [8], 1.45 µM; in [9], 2.18 µM; in assay [10], 2.28 µM.

Source of the values: PubChem BioAssay (NCI).
